Where no end group is shown, it is not given here.
Key:
HT29 cells = experiment: Induction of apoptosis in HT29 cells (detachment, nuclear morphology); type: cell-based; settings: after 48 hours of treatment
HuVECs 9F0293 cells = experiment: Time course of detachment and PI staining of HuVECs (9F0293); type: cell-based, Human; settings: 2 ug/ml
Experimental: To determine the time course in which dead and/or dying HuVECs detach from the solid support in response to a cytotoxic agent, 9F0293 cells were plated and subsequently treated with puromycin (2 ug/ml). Both floater and adherent cell populations were then collected at varying times (t=4, 7, 9, 16, 20, and 24 hours) and analyzed to determine (a) the percent PI^+ cells in the floater population and (b) the fraction of cells which became floaters. […] The fraction of floaters that stained with PI (PI^+ population) increased with time.

[1] = tested on: ecdysone receptor (pVgRXR); experiment: Induction of GFP fluorescence from ecdysone-regulated vector pBIGFII in ECR293 cells; type: cell-based; settings: 5 μM, cells containing pBIGFII and pVgRXR
Excerpt: As an alternative to the constitutive pCLMFG vector, an inducible construct that can be regulated by ecdysone was constructed as follows. The PmII/XhoI fragment from pVT324 was inserted into the MCS of the PIND vector (Invitrogen). This product was then digested with BgIII, blunt-ended and inserted into a pBabe-K-ras vector (pVT313-based) that had been digested with BamHI/XhoI and blunted (Klenow Fragment). The resulting vector was designated pBabe-Forward-1. The XbaI fragment of pVT324 was then inserted into the compatible site of pBabe-Forward-1. The resulting vector was designated pBIGFII. Vector pBIGFII was subsequently transfected into cells (ECR293, Invitrogen) that contain an endogenous copy of the ecdysone receptor (pVgRXR).

WM35 cells = experiment: Ethidium homodimer/Syto16 staining for cell death and nuclear morphology; type: cell-based
Experimental: (§1) Two cell lines, WM35 and HS294T, were plated out (50,000 cells per well, 24 well plate) and allowed to adhere. After 24 hours, the cells were treated for 4 hours with varying concentrations (5-80 μM) of Cisplatin (cis-platinum (II) diammine dichloride), a well-known chemotherapeutic agent that induces apoptosis. […] Adherent cell populations were then lifted from the solid support by trypsinization, centrifuged (400×g), and resuspended in PBS (0.125 ml). To observe the nuclear morphology and percent cell death in the WM35 and HS294T cell lines, cells from both floater and adherent populations were stained concurrently with Syto16 and ethidium homodimer (125 ul of cell suspension+2.5 ul 62.5 uM Syto16+[…] 100 ug/ml ethidium homodimer, 10 minutes at 37° C.). Ethidium homodimer is a membrane impermeant compound that fluoresces in the 617 nm range when it is intercalated with chromosomal DNA. Thus, in a mixed cell population containing both living and dead/dying cells, only those cells whose membranes have been compromised will stain with ethidium homodimer. In contrast, Syto 16 (Molecular Probes) is a membrane permeant dye that fluoresces in the 518 nm range when associated with chromosomal DNA. Together, these two dyes can be used to observe and distinguish the nuclear morphology in a population containing both living and dead/dying cells.

HS294T cells = experiment: as above; type: cell-based
Experimental: as §1

WM35 (melanoma) cells = experiment: Caspase-3 fluorescent substrate (Rhodamine 123-YVAD) and PI staining of floater cells, FACS; type: cell-based; settings: PI-minus floater cells, 15 μg/ml, 18-24 hours after induction
Experimental: WM35 cells were passed one day prior to induction of apoptosis and incubated for 24 hrs to allow the cells to attach to the substrate. The media was subsequently removed, the remaining adherent cells washed 1× with PBS, and subsequently exposed to Cisplatin (15 μg/ml) in fresh media. Eighteen to twenty-four hours after the induction of apoptosis, the floater cell population was collected, pelleted by centrifugation (400×g), and resuspended at 3×10^6 cells/ml in PBS. Samples were then split into four groups: (1) uninduced minus Rhodamine 123-YVAD (substrate), (2) uninduced plus substrate, (3) induced minus substrate, and (4) induced plus substrate. For samples exposed to Rhodamine 123-YVAD substrate, 50 ul of a pre-warmed (37° C.) cell suspension was combined with 25 ul of a stock substrate solution (Cellprobe). Samples were incubated for 60 minutes at 37° C. and then placed on ice prior to FACS analysis. In addition to caspase-3 staining, a replicate of each sample was stained with propidium iodide to determine the percentage of cells within the population whose membranes had been compromised and the overlap between PI and caspase-3 staining. […] Emission spectra were read at 515-535 nm wavelength using the FL1 (PMT2) 525 nm blue filter.

[2] = target: epitope in the mitochondrial membrane that is exposed only in cells that are undergoing apoptosis (Jurkat cells, permeabilized with digitonin); experiment: flow cytometry, digitonin-permeabilized Jurkat cells, 21 hours in anti-FAS antibody (1 ug/ml)
[3] = target: epitope in the mitochondrial membrane that is exposed only in cells that are undergoing apoptosis (Jurkat cells, permeabilized with digitonin); experiment: flow cytometry, digitonin-permeabilized Jurkat cells, 0 hours in anti-FAS antibody
T47D cells = experiment: Kill curve in T47D cells (cell number after 5 days); type: cell-based
Experimental: Approximately 250,000 cells were seeded into each well of a six well plate. Cells were then grown in media containing camptothecin of varying concentrations (0-10 uM). After 5 days, the number of cells remaining in each of the camptothecin-treated wells was compared with untreated controls. From these experiments, it was determined that camptothecin concentrations ranging from 1-4 nM had no effect on T47D cell number over the course of the 5 days of treatment. […] In order to determine whether this level of treatment is concomitantly increasing the number of floaters in the population, several flasks are seeded with T47D cells and then treated with 1-4 nM concentrations of camptothecin. After a period of three to five days, the media is collected and the number of floater cells are counted and compared to the total number of cells in the flask (floaters+adherents).

HT29 colon cancer cells = experiment: HT29 floater assay (negative selection); type: cell-based; settings: for level of floaters relative to background: Sort VI clones, FIG. 10
Experimental: HT29 cells were tested for feasibility in the floater cell assay as follows. Briefly, six flasks were inoculated with 6.25×10^5 HT29 cells/flask on Day 0. On Day 1, after the cells had been allowed to adhere to the solid support, two of these flasks were infected with retroviral supernatant containing the retroviral vector pVT324, which includes a selectable drug resistant marker (e.g. neomycin), and which constitutively expresses a green fluorescent protein. Of the remaining four flasks, two were mock infected (i.e. exposed to all of the same reagents/conditions as flasks 1 and 2, minus the retrovirus, see “Example 3C”) and two were left undisturbed. On Day 2, this procedure was repeated (i.e. a double infection). On Day 3 (and subsequently on Day 5) one flask was selected from each of the three groups and processed by separating and counting the floater and adherent cell populations. In the case of the floater cell population, the media was collected, centrifuged at 200×g for 10 minutes, and resuspended in PBS prior to removing a sample for counting on a hemocytometer. For the adherent cell population, cells were first removed from the flask by trypsinization, centrifuged, and then processed for analysis in a fashion analogous to the floater cells. To determine the inherent background level of floater cells present in the population, the ratio of the number of floater cells to the total number of cells (adherent cells+floater cells) was analyzed on both the Day 3 and Day 5 flasks that had not been manipulated. These numbers were compared with the analogous numbers taken from infected and mock-infected flasks to determine whether the retrovirus or transfection procedures altered background floater rates. To determine the susceptibility of HT29 cells to retroviral infection, the fraction of cells that expressed GFP in pVT324 infected flasks was calculated using flow cytometry.
Twenty T175 flasks were seeded with 2.2×10^6 HT29 cells/flask in McCoy's 5A media (Gibco BRL) modified with 10% FBS. On Day 1, each flask was infected (4 μg/ml polybrene, 50% volume) with a retroviral supernatant containing a commercially obtained brain cDNA library (“Example Three” above). On Day 2 the media was changed. On Day 3 both the floater and adherent cell populations were collected (separately) from the twenty flasks. Approximately 652,500 floaters were isolated from a theoretical background of 4.2×10^7 adherents (1.5% floaters) and frozen down for future studies. […] Additional floater cells were then collected Day 5, where the collection and counting procedures were repeated and some 7.8×10^6 floaters and 7.6×10^8 adherents were counted (1.03% floaters). […] The floater populations of Days 3 and 5 were then combined and readied for a genomic DNA prep using a QIAamp kit (Qiagen) following standard procedures. Briefly, some 9×10^6 floater cells in PBS were lysed to release gDNA. This material was passed over a QIAamp column that was then washed several times to remove protein and RNA contaminants. Twenty-seven micrograms of genomic DNA were then eluted from the columns with dH2O and treated with RNAse A to eliminate any RNA contamination. This gDNA was then subjected to PCR procedures to amplify the library sequences encoded therein. […]

[4] = floater population, 5-80 μM for 4 hours, 18-24 hrs later

Molecule: CSc1ccc(/C=C2/C(C)=C(CC(=O)O)c3cc(F)ccc32)cc1 [sulindac sulfide]
- detachment and apoptotic morphology (HT29 cells): majority of the cells had detached from the dish and showed typical apoptotic morphology

Molecule: COc1ccc(C[C@H](N)C(=O)N[C@H]2[C@@H](O)[C@H](n3cnc4c(N(C)C)ncnc43)O[C@@H]2CO)cc1 [puromycin]
- time point at which the majority of cells detached (HuVECs 9F0293 cells): 16 h
- floater cells in the PI+ gate (HuVECs 9F0293 cells; by 20 hours): nearly all

Molecule: CC(C)CC[C@@H](O)[C@](C)(O)[C@H]1CC[C@@]2(O)C3=CC(=O)[C@@H]4C[C@@H](O)[C@@H](O)C[C@]4(C)[C@H]3CC[C@]12C [ponesterone A]
- increase of the level of fluorescence [1]: approximately thirty

Molecule: N.N.[Cl-].[Cl-].[Pt+2] [Cisplatin, cis-platinum (II) diammine dichloride]
- ethidium homodimer staining of adherent cell population (WM35 cells; adherent population): < 10%
- ethidium homodimer staining of floaters (WM35 cells; [4]): 45-50%
- condensed or fragmented nuclei in floaters (WM35 cells; floaters, higher concentrations): 40-50%
- ethidium homodimer staining of adherent cell population (HS294T cells; adherent population): < 10%
- cells showing condensed or fragmented nuclei (HS294T cells; ethidium homodimer stained floater cells, fluorescent microscopy): < 20%
- floater cells stained with ethidium homodimer (HS294T cells; [4]): greater than 50%
- caspase-3 positive cells (WM35 (melanoma) cells): 94.6%

Molecule: Apo2.7 monoclonal antibody (Coulter Immunotech), fluorescent R-phycoerythrin-cyanin labeled
- percent of population labeled [2]: 81%
- percent of population labeled [3]: 4%

Molecule: CC[C@@]1(O)C(=O)OCc2c1cc1n(c2=O)Cc2cc3ccccc3nc2-1 [camptothecin]
- cell number relative to the untreated control (T47D cells; 10 nM, 5 days): roughly one third
- concentrations with no effect on cell number (T47D cells; 5 days of treatment): 1 to 4 nM

Molecule: 0328: cytotoxic agent isolated from clone 0328, SEQ ID NO: 23 (XXAVAWLGSTGMTCGAQRLRSLR; X: residue not identified in the source) [compound 0328]
- level of floaters relative to background (HT29 colon cancer cells): increased levels of floaters that were statistically significant relative to background
- floater rate (HT29 colon cancer cells; individual clone reintroduced into HT29 cells): 2%

B1: BID: BID clone among the Sort VI clones tested in the HT29 floater assay (FIG. 10) (protein, UniProt P55957 1-195, looked up)
BH3-interacting domain death …: MDCEVNNGSSLRDECITNLLVFGFLQSCSDNSFRRELDALGHELPVLAPQWEGYDELQTDGNRSSHSRLGRIEADSESQEDIIRNIARHLAQVGDSMDRSIPPGLVNGLALQLRNTSRSEEDRNRDLATALEQLLQAYPRDMEKEKTMLVLALLLAKKVASHTPSLLRDVFHTTVNFINQNLRTYVRSLARNGMD
- level of floaters relative to background (HT29 colon cancer cells): increased levels of floaters that were statistically significant relative to background

B2: 0195: cytotoxic agent isolated from clone 0195, SEQ ID NO: 22 (protein)
chain: PEILSRSHLLLAGQTLIGVVAMVVEAEGEEDPWAVEAMEVVAVVVVAEEDFPVEVVAVEDSSELVTGSVLIPPVRI
- level of floaters relative to background (HT29 colon cancer cells): increased levels of floaters that were statistically significant relative to background
